Measurements from paper PMC8705783, “The Effect of Conjugation with Octaarginine, a Cell-Penetrating Peptide on Antifungal Activity of Imidazoacridinone Derivative” (International Journal of Molecular Sciences, 2021).
In brackets after ≈: the same amount, converted by molar mass. Where a name gives a salt, the structure may show the parent alone.

What was measured:
Candida albicans = test system: Candida albicans; design: method as in PMID 23563951; key to Antifungal Activity (level): (−) Means no antifungal activity; (±) low activity; (+) moderate activity; (++) high activity at the concentration mentioned; conditions: cited from earlier work
reference strains = assay: Antifungal activity, summary over reference strains; type: cell-based; design: key to Antifungal Activity (level): (−) Means no antifungal activity; (±) low activity; (+) moderate activity; (++) high activity at the concentration mentioned; conditions: for Antifungal Activity (level): Table 3; for antifungal activity: as reported in Table 1
[1] = test system: Candida albicans ATCC 10231; assay: microbe, parasite or virus in culture
[2] = test system: Candida glabrata ATCC 90030; assay: microbe, parasite or virus in culture; conditions: Nakaseomyces glabratus, ATCC90030, 24 h, pH 7
Candida krusei ATCC 6258 = assay: microbe, parasite or virus in culture; conditions: Pichia kudriavzevii, ATCC6258, 24 h, pH 7
[3] = test system: Candida parapsilosis ATCC 22019; assay: microbe, parasite or virus in culture; conditions: Lodderomyces parapsilosis, ATCC22019, 24 h, pH 7
[4] = test system: Saccharomyces cerevisiae ATCC 9763; assay: microbe, parasite or virus in culture; conditions: ATCC9763, 24 h, pH 7
yeast topoisomerase II = yeast topoisomerase II (Saccharomyces cerevisiae, UniProt P06786); assay: Yeast topoisomerase II relaxation assay; type: biochemical; conditions: supercoiled pBR322, tested at 1-200 μM
Experimental: Due to the known activity of acridine and acridone derivatives as human topoisomerase inhibitors widely analysed for cancer chemotherapy, we decided to analyse the influence of Compound 1 as well as its R8 conjugate on the fungal equivalent of that enzyme. The relaxation of supercoiled plasmid DNA by yeast topoisomerase II (yTOPO II) was studied in the presence of different concentrations of both compounds.
The inhibition of yeast topoisomerase II was analysed according to the relaxation assay kit from Inspiralis (Inspiralis Limited, Norwich, UK). Briefly, 250 ng of supercoiled pBR322 DNA (Thermo Fisher Scientific, Waltham, MA, USA), 1 mM ATP (Inspiralis Limited, UK), and 1–200 μM of the analysed compound were mixed with reaction buffer (1 mM Tris-HCl (pH 7.9), 10 mM KCl, 0.5 mM MgCl2, 0.2 % (by volume) glycerol). The reaction was initiated by the addition of an enzyme, allowed to proceed at 30 °C for 30 min and terminated by addition of 40% (m/V) sucrose, 100 mM Tris-HCl pH 8, 10 mM EDTA, and 0.5 mg mL^−1 Bromophenol Blue. Two-step extraction with chloroform:isoamyl alcohol (24:1, by volume) and butanol water was performed and mixtures were analysed on 1% agarose gel in 1 × TAE buffer, 3h, 4.5 V cm^−1. Gel was stained in GelRed 3 × staining solution (Biotium, Fremont, CA, USA) for 30 min and photographed with Gel Doc XR+Gel Documentation System (Bio-Rad: Hercules, CA, USA).

human topoisomerase II = conditions: cited from earlier work
C. albicans ATCC 10231 = type: cell-based, Candida albicans; conditions: 1/4 × MIC to 4 × MIC, RPMI medium
Experimental: Killing kinetics analysis was performed as described previously. […] After an appropriate time of incubation, 10 μL was withdrawn and spread on YPG agar plates. The number of colony-forming units (CFUs) was determined after overnight incubation of the plates at 37 °C. The killing kinetics analysis was performed with the GraphPad Prism 8 software (GraphPad Software Inc., San Diego, CA, USA).

Candida albicans B3 = assay: microbe, parasite or virus in culture
Candida albicans B4 = assay: microbe, parasite or virus in culture
Candida albicans Gu4 = assay: microbe, parasite or virus in culture
Candida albicans Gu5 = assay: microbe, parasite or virus in culture
Candida albicans F2 = assay: microbe, parasite or virus in culture
Candida albicans F5 = assay: microbe, parasite or virus in culture

Sequence of yeast topoisomerase II (P06786 whole entry): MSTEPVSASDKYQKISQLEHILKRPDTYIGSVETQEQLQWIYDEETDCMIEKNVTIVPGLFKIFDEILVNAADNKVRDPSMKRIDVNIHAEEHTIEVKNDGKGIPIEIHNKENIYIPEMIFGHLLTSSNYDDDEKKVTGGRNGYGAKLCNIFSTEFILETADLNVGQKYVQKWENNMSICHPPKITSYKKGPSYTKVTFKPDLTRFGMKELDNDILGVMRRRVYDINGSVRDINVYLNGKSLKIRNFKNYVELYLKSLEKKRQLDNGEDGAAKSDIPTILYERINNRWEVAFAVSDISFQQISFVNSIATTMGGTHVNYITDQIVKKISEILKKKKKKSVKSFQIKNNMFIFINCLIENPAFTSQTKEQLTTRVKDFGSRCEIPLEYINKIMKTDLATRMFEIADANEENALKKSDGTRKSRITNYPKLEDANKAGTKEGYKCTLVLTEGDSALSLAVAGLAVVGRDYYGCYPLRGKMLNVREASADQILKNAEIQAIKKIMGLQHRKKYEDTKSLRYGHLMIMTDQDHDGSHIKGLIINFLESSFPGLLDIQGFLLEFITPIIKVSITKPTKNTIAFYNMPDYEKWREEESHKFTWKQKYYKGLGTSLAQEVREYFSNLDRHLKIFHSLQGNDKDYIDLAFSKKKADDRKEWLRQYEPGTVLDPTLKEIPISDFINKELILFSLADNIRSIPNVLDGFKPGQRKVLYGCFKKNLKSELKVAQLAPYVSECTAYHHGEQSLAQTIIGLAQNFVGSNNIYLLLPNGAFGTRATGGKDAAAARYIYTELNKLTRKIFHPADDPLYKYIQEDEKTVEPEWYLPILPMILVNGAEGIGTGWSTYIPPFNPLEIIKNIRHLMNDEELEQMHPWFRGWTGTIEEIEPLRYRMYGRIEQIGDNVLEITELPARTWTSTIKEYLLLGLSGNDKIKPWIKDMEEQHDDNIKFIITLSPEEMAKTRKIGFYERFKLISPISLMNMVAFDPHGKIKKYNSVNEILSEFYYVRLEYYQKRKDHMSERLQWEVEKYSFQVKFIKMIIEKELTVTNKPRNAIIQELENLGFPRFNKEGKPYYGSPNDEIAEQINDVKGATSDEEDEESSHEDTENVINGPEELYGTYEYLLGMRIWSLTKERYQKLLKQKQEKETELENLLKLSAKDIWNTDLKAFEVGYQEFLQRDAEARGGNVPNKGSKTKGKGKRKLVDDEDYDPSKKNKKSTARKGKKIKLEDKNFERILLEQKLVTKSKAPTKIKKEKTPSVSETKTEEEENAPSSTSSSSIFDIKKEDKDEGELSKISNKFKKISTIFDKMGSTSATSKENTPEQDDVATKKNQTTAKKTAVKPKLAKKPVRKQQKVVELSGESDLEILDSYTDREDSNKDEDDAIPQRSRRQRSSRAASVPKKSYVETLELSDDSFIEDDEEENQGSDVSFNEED

Cc1ccc2c(c1)c(=O)c1c(NCCCN(C)C)ccc3nnn2c31 (as salt: hydrochloride) [Compound C-1296, 5-[-(3′-Dimethylamino)propylamino]-8-methyl-6H-[1,2,3]-triazolo[4,5,l-de]acridin-6-one]
melting point: 120 to 122 °C

CCN(CC)CCNc1ccc2ncn3c4ccc(OC)cc4c(=O)c1c23 [Compound C-1330]
Antifungal Activity (level) (Candida albicans; Table 3, activity data published previously ref 8): +
antifungal activity (Candida albicans): showed phototoxic antifungal activity

CCNCCNc1ccc2nnn3c4ccc(O)cc4c(=O)c1c23 [Compound C-1410, 5-[2′-(Ethyl)-ethylenediamine]-8-hydroxy-6H-[1,2,3]-triazolo[4,5,l-de]acridin-6-one]
Antifungal Activity (level) (reference strains): −
antifungal activity (reference strains): no antifungal activity was observed
MIC90 ([1]; ATCC10231, 24 h, pH 7): > 64 µg/mL
MIC90 [2]: > 64 µg/mL
MIC90 (Candida krusei ATCC 6258): > 64 µg/mL
MIC90 [3]: > 64 µg/mL
MIC90 [4]: > 64 µg/mL

CN(C)CCCNc1ccc2nnn3c4ccc(O)cc4c(=O)c1c23 [Compound C-1305, 5-[-(3′-Dimethylamino)propylamino]-8-hydroxy-6H-[1,2,3]-triazolo[4,5,l-de]acridin-6-one]
Antifungal Activity (level) (reference strains): −
antifungal activity (reference strains): no antifungal activity was observed
concentration that totally inhibited yeast topoisomerase II-mediated relaxation (yeast topoisomerase II): 50 µM
concentration that totally inhibited human topoisomerase II-mediated relaxation (human topoisomerase II): 10 µM
IC50 (human topoisomerase II; read-out: concentration that diminished the relaxation reaction by 50%): 2.5 µM
MIC90 ([1]; ATCC10231, 24 h, pH 7): > 64 µg/mL
MIC90 [2]: > 64 µg/mL
MIC90 (Candida krusei ATCC 6258): > 64 µg/mL
MIC90 [3]: > 64 µg/mL
MIC90 [4]: > 64 µg/mL

NCCNc1ccc2ncn3c4ccc(O)cc4c(=O)c1c23 (as salt: hydrochloride) [Compound 1, 5-((2-Aminoethyl)amino)-8-hydroxy-6H-imidazo[4,5,1-de]acridin-6-one]
melting point: 332 to 334 °C

CN(C)CCCNc1ccc2nnn3c4ccc(O)cc4c(=O)c1c23 (as salt: hydrochloride) [Compound C-1305, 5-[-(3′-Dimethylamino)propylamino]-8-hydroxy-6H-[1,2,3]-triazolo[4,5,l-de]acridin-6-one]
melting point: 228 to 230 °C

Cc1ccc2c(c1)c(=O)c1c(NCCCN(C)C)ccc3nnn2c31 [Compound C-1296, 5-[-(3′-Dimethylamino)propylamino]-8-methyl-6H-[1,2,3]-triazolo[4,5,l-de]acridin-6-one]
Antifungal Activity (level) (reference strains): ±
antifungal activity (reference strains): no antifungal activity was observed
MIC90 ([1]; ATCC10231, 24 h, pH 7): > 64 µg/mL
MIC90 [2]: > 64 µg/mL
MIC90 (Candida krusei ATCC 6258): > 64 µg/mL
MIC90 [3]: > 64 µg/mL
MIC90 [4]: 32 µg/mL (≈ 95.4 µM)

OC(Cn1cncn1)(Cn1cncn1)c1ccc(F)cc1F [Fluconazole]
killing kinetics, kind of effect (C. albicans ATCC 10231): fungistatic
MIC90 ([1]; ATCC10231): 8 µg/mL (≈ 26.1 µM)
MIC90 (Candida albicans B3): 1 µg/mL (≈ 3.27 µM)
MIC90 (Candida albicans B4): 16 µg/mL (≈ 52.2 µM)
MIC90 (Candida albicans Gu4): 4 µg/mL (≈ 13.1 µM)
MIC90 (Candida albicans Gu5): > 64 µg/mL
MIC90 (Candida albicans F2): 8 µg/mL (≈ 26.1 µM)
MIC90 (Candida albicans F5): > 64 µg/mL

CCNCCNc1ccc2nnn3c4ccc(O)cc4c(=O)c1c23 (as salt: hydrochloride) [Compound C-1410, 5-[2′-(Ethyl)-ethylenediamine]-8-hydroxy-6H-[1,2,3]-triazolo[4,5,l-de]acridin-6-one]
melting point: 300 °C
